Measurements taken from US6268391A, “Benzylidene-1,3-dihydro-indol-2-one derivatives a receptor tyrosine kinase inhibitors, particularly of Raf kinases” (Glaxo Wellcome Inc., priority 1997, dated 2001).

molecular target: T1, Human cRaf1 (Homo sapiens, UniProt P04049); experiment: Raf kinase assay (cRaf1 assay / Raf/MEK cascade assay); assay type: biochemical; details: Table 3; read-out: Raf Kinase activity
T1 construct: poly-histidine (C); made in house
Experimental: The potency of cRaf1 dependent kinase activity was measured using one of two assay formats. The first measured cRaf1 catalyzed phosphorylation of MEK1, the natural substrate for cRaf1. This assay is referred to as the cRaf1 assay. The second measured the ability of cRaf1 to phosphorylate and activate MEK1. This assay is referred to as the Raf/MEK cascade assay.
Human cRaf1 tagged with poly histidine at the carboxyterminus was expressed in a baculovirus expression system and purfied by Ni chelate affinity chromatography. Human MEK1 was expressed in E. coli as a fusion protein with Glutathione-S-transferase, and purified by glutathione sepharose affinity chromatography. […] Reactions contained cRaf1 (20 nM), MEK1 (100-500 nM), [γ-^32 P]ATP ([…]), Mg^2+ (10 mM), MOPS (50 mM, pH 7.5). Reactions were incubated at room temperature for periods of time ranging from 20-120 minutes. Inhibitors were diluted in 100% DMSO prior to addition to the assay. Reactions were terminated with an equal volume of 0.5% phosphoric acid. MEK1 phosphorylation was detected by scintillation counting following collection of protein onto phosphocellulose filters.
Human cRaf1 and MEK1 were purified as described above. A peptide substrate phosphorylated by MEK1 was used as the final phosphoryl group acceptor. […] Assay conditions were the same as those described above except for the following modifications. Reactions contained cRaf1 (1-5 nM), MEK1 (60 nM), and peptide ([…]).

IC50 [nM] | Molecule
10000 to 100000 | 2,6-Dibromo-4-[(5-glycoloyl-2-oxo-1,2-dihydro-3H-indol-3-ylidene)methyl]phenyl ethyl carbonate [Example 155]
< 1000 | 3-(3,5-Dibromo-4-hydroxy-benzylidene)-5-(3-methylimidazol-1-yl-acetyl)-1,3-dihydro-indol-2-one [Example 71]
< 1000 | 3-(3-Bromo-4-hydroxy-5-ethoxy-benzylidene)-5-(2-dimethylamino-acetyl)-1,3-dihydro-indol-2-one [Example 111]
< 1000 | 5-{2-[N-Benzyl-N-(2-hydroxy-acetyl)-amino]-ethyl}-3-(3,5-dibromo-4-hydroxy-benzylidene)-1,3-dihydro-indol-2-one [Example 78]
< 1000 | CCOc1cc(C=C2C(=O)Nc3ccc(-c4csc(C)n4)cc32)cc(Br)c1O [Example 3, 3-(3-Bromo-5-ethoxy-4-hydroxy-benzylidene)-5-(2-methyl-thiazol-4-yl)-1,3-dihydro-indol-2-one]
< 1000 | Cc1nc(-c2ccc3c(c2)C(=Cc2cc(Cl)c(O)c(Cl)c2)C(=O)N3)cs1 [Example 4]
< 1000 | CC(C)CC(=O)c1ccc2c(c1)C(=Cc1cc(Br)c(O)c(Br)c1)C(=O)N2 [Example 5]
< 1000 | O=C1Nc2ccc(C(=O)c3ccccc3)cc2C1=Cc1cc(Br)c(O)c(Br)c1 [Example 6, 5-Benzoyl-3-(3,5-dibromo-4-hydroxy-benzylidene)-1,3 dihydro-indol-2-one]
< 1000 | O=C1Nc2ccc(C(=O)c3ccccc3)cc2C1=Cc1cc(Cl)c(O)c(Cl)c1 [Example 7, 5-Benzoyl-3-(3,5-dichloro-4-hydroxy-benzylidene)-1,3-dihydro-indol-2-one]
< 1000 | CC(C)CC(=O)c1ccc2c(c1)C(=Cc1cc(Cl)c(O)c(Cl)c1)C(=O)N2 [Example 9]
< 1000 | CCOc1cc(C=C2C(=O)Nc3ccc(C(=O)CC(C)C)cc32)cc(Br)c1O [Example 10, 3-(3-Bromo-5-ethoxy-4-hydroxy-benzylidene)-5-(3-methyl-butanoyl)-1,3-dihydro-indol-2-one]
< 1000 | O=C1Nc2ccc(C(=O)c3cccnc3)cc2C1=Cc1cc(Br)c(O)c(Br)c1 [Example 11]
< 1000 | O=C1Nc2ccc(C(=O)c3cccnc3)cc2C1=Cc1cc(Cl)c(O)c(Cl)c1 [Example 12, 3-(3,5-Dichloro-4-hydroxy-benzylidiene)-5-(pyridine-3-carbonyl)-1,3-dihydro-indol-2-one]
< 1000 | O=C1Nc2ccc(C(=O)c3ccncc3)cc2C1=Cc1cc(Br)c(O)c(Br)c1 [Example 13, 3-(3,5-Dibromo-4-hydroxy-benzylidene)-5-(pyridine-4-carbonyl)-1,3-dihydro-indol-2-one]
< 1000 | CCOc1cc(C=C2C(=O)Nc3ccc(C(=O)c4ccncc4)cc32)cc(Br)c1O [Example 14, 3-(3-Bromo-5-ethoxy-4-hydroxy-benzylidene)-5-(pyridine-4-carbonyl)-1,3-dihydro-indol-2-one]
< 1000 | O=C1Nc2ccc(C(=O)c3ccncc3)cc2C1=Cc1cc(Cl)c(O)c(Cl)c1 [Example 15, 3-(3,5-Dichloro-4-hydroxy-benzylidene)-5-(pyridine-4-carbonyl)-1,3-dihydro-indol-2-one]
< 1000 | CCOc1cc(C=C2C(=O)Nc3ccc(C(=O)c4cccnc4)cc32)cc(Br)c1O [Example 16, 3-(3-Bromo-5-ethoxy-4-hydroxy-benzylidene)-5-(pyridine-3-carbonyl)-1,3-dihydro-indol-2-one]
< 1000 | O=C1Nc2ccc(-c3cnco3)cc2C1=Cc1cc(Cl)c(O)c(Cl)c1 [Example 17]
< 1000 | O=C1Nc2ccc(-c3cnco3)cc2C1=Cc1cc(Br)c(O)c(Br)c1 [Example 18, 3-(3,4-Dibromo-4-hydroxy-benzylidene)-5-(oxazol-5-yl)-1,3-dihydro-indol-2-one]
< 1000 | CCc1nc(-c2ccc3c(c2)C(=Cc2cc(Br)c(O)c(Br)c2)C(=O)N3)cs1 [Example 19, 3-(3,5-Dibromo-4-hydroxy-benzylidene)-5-(2-ethyl-thiazol-4-yl)-1,3-dihydro-indol-2-one]
< 1000 | COC(=O)c1ccc2c(c1)C(=Cc1cc(Br)c(O)c(Br)c1)C(=O)N2 [Example 20, 3-(3,5-Dibromo-4-hydroxy-benzylidene)-2-oxo-2,3-dihydro-1H-indol-5-carboxylic acid methyl ester]

IC50 [nM] | Molecule
< 1000 | O=C1Nc2ccc(C(=O)c3ccco3)cc2C1=Cc1cc(Br)c(O)c(Br)c1 [Example 21]
< 1000 | O=C1Nc2ccc(C(=O)c3ccco3)cc2C1=Cc1cc(Cl)c(O)c(Cl)c1 [Example 22]
< 1000 | CCOc1cc(C=C2C(=O)Nc3ccc(C(=O)c4ccco4)cc32)cc(Br)c1O [Example 23]
< 1000 | O=C1Nc2ccc(C(=O)C3CC3)cc2C1=Cc1cc(Br)c(O)c(Br)c1 [Example 24, 5-Cyclopropanecarbonyl-3-(3,5-dibromo-4-hydroxy-benzylidene)-1,3-dihydro-indol-2-one]
< 1000 | O=C1Nc2ccc(C(=O)C3CCCC3)cc2C1=Cc1cc(Br)c(O)c(Br)c1 [Example 26, 5-Cyclopentanecarbonyl-3-(3,5-dibromo-4-hydroxy-benzylidene)-1,3-dihydro-indol-2-one]
< 1000 | COC(=O)c1ccc2c(c1)C(=Cc1cc(Cl)c(O)c(Cl)c1)C(=O)N2 [Example 27, 3-(3,5-Dichloro-4-hydroxy-benzylidene)-2-oxo-2,3-dihydro-1H-indole-5-carboxylic acid methyl ester]
1000 to 10000 | O=C1Nc2ccccc2C1=Cc1cc(Br)c(O)c(Br)c1 [Example 28, 3-(3,5-Dibromo-4-hydroxy-benzylidene)-1,3-dihydro-indol-2-one]
< 1000 | O=C1Nc2ccc(C(=O)c3cccs3)cc2C1=Cc1cc(Br)c(O)c(Br)c1 [Example 29, 3-(3,5-Dibromo-4-hydroxy-benzylidene)-5-(thiophene-2-carbonyl)-1,3-dihydro-indol-2-one]
< 1000 | Nc1nc(-c2ccc3c(c2)C(=Cc2cc(Br)c(O)c(Br)c2)C(=O)N3)cs1 [Example 30, 5-(2-Amino-thiazol-4-yl)-3-(3,5-dibromo-4-hydroxy-benzylidene)-1,3-dihydro-indol-2-one]
< 1000 | O=C1Nc2ccc(-c3cn4ccccc4n3)cc2C1=Cc1cc(Br)c(O)c(Br)c1 [Example 31, 3-(3,5-Dibromo-4-hydroxy-benzylidene)-5-(imidazo[1,2a]pyridin-2-yl)-1,3-dihydro-indol-2-one]
< 1000 | CCC(=O)c1ccc2c(c1)C(=Cc1cc(Br)c(O)c(Br)c1)C(=O)N2 [Example 32, 3-(3,5-Dibromo-4-hydroxy-benzylidene)-5-propionyl-1,3-dihydro-indol-2-one]
< 1000 | NS(=O)(=O)c1ccc2c(c1)C(=Cc1cc(Br)c(O)c(Br)c1)C(=O)N2 [Example 33, 3-(3,5-Dibromo-4-hydroxy-benzylidene)-2-oxo-2,3-dihydro-1H-indole-5-sulfonic acid amide]
< 1000 | CCN(CC)S(=O)(=O)c1ccc2c(c1)C(=Cc1cc(Br)c(O)c(Br)c1)C(=O)N2 [Example 34, 3-(3,5-Dibromo-4-hydroxy-benzylidene)-2-oxo-2,3 dihydro-1H-indole-5-sulfonic acid N,N-diethylamide]
< 1000 | O=C1Nc2ccc(S(=O)(=O)N3CCCC3)cc2C1=Cc1cc(Br)c(O)c(Br)c1 [Example 35, 3-(3,5-Dibromo-4-hydroxy-benzylidene)-5-(pyrrolidine-1-sulfonyl)-1,3-dihydro-indol-2-one]
< 1000 | CN(C)CCN(C)S(=O)(=O)c1ccc2c(c1)C(=Cc1cc(Br)c(O)c(Br)c1)C(=O)N2 [Example 36, 3-(3,5-Dibromo-4-hydroxy-benzylidene)-2-oxo-2,3-dihydro-1H-indol-5-sulfonic acid (N-2-dimethylamino-ethyl)-N-methyl-amide]
< 1000 | O=C1Nc2ccc(C(=O)c3ccno3)cc2C1=Cc1cc(Br)c(O)c(Br)c1 [Example 37, 3-(3,5-Dibromo-4-hydroxy-benzylidene)-5-(isoxazole-5-carbonyl)-1,3-dihydro-indol-2-one]
< 1000 | O=C1Nc2ccc(Cl)cc2C1=Cc1cc(Br)c(O)c(Br)c1 [Example 38, 5-Chloro-3-(3,5-dibromo-4-hydroxy-benzylidene)-1,3-dihydro-indol-2-one]
< 1000 | O=C1Nc2ccc(Cl)cc2C1=Cc1cc(Cl)c(O)c(Cl)c1 [Example 39, 5-Chloro-3-(3,5-dichloro-4-hydroxy-benzylidene)-1,3-dihydro-indol-2-one]
< 1000 | O=C1Nc2ccc(OC(F)(F)F)cc2C1=Cc1cc(Br)c(O)c(Br)c1 [Example 40, 3-(3,5-Dibromo-4-hydroxy-benzylidene)-5-trifluoromethoxy-1,3-dihydro-indol-2-one]
< 1000 | O=C1Nc2ccc(Br)cc2C1=Cc1cc(Cl)c(O)c(Cl)c1 [Example 41, 5-Bromo-3-(3,5-dichloro-4-hydroxy-benzylidene)-1,3-dihydro-indol-2-one]
< 1000 | CCOc1cc(C=C2C(=O)Nc3ccc(I)cc32)cc(Br)c1O [Example 42, 3-(3-Bromo-5-ethoxy-4-hydroxy-benzylidene)-5-iodo-1,3-dihydro-indol-2-one]
